The target in this experiment is T1, α3β4 nicotinic acetylcholine receptor (α3 subunit) (Rattus norvegicus, UniProt P04757+P12392).
T1 construct: gene Chrna3; complete open reading frames of rat α3 and β4 subunits, RNA 1:1, Xenopus oocytes; with nAChR β4 subunit (Chrnb4)
The experiment is described as follows: two-electrode voltage clamp in Xenopus oocytes (partial agonist). The experiment is classed as cell-based. (In general: Two-electrode voltage clamp is typically applied to oocytes expressing channels or transporters.)

Each structure is given as a SMILES string.

As a reminder, the EC50 is the concentration needed to bring the measured effect to its halfway point. Read a high EC50 as lower potency in that assay.

T1 sequence (P04757 26-499): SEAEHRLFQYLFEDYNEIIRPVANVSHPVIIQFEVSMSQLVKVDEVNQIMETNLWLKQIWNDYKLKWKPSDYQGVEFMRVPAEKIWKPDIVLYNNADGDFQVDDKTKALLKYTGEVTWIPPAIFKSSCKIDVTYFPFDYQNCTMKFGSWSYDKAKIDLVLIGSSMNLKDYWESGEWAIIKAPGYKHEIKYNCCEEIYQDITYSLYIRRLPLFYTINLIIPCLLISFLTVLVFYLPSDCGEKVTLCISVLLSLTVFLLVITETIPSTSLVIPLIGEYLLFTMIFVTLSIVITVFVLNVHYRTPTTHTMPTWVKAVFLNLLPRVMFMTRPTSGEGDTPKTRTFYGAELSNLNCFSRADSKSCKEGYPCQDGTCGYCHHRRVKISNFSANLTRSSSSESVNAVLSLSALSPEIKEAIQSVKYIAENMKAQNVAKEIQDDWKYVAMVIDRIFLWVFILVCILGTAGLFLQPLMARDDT
T1 sequence (P12392 21-495): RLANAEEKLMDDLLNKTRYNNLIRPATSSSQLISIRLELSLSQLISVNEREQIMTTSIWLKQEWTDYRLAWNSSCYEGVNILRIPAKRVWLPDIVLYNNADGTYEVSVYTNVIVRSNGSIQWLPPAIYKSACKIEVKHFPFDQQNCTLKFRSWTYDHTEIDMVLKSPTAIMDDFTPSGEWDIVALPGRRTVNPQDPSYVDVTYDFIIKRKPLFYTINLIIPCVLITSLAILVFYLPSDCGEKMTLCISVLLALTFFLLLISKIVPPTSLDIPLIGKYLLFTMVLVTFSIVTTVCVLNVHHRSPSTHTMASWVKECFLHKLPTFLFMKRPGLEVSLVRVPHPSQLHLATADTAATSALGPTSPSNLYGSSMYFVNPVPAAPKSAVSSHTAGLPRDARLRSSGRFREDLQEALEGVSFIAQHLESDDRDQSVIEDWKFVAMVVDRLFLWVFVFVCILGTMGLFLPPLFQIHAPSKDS

The compound `CN/C(=N\[N+](=O)[O-])NCc1cnc(Cl)s1` [CLO, clothianidin] had an EC50 of 8.39 ± 0.77 mM.

The values above are taken from publication PMC8151892, “Partial Agonist Activity of Neonicotinoids on Rat Nicotinic Receptors: Consequences over Epinephrine Secretion and In Vivo Blood Pressure” (International Journal of Molecular Sciences, 2021).
